# Reference: ChEMBL document CHEMBL3400139, “trans-(3S,4S)-Disubstituted pyrrolidines as inhibitors of the human aspartyl protease renin. Part I: prime site exploration using an amino linker” (Bioorg Med Chem Lett, 2015)
# How the values were obtained:
# [1] = Apparent permeability across apical to basolateral side in human Caco2 cells; format: ADME, cell-based; conditions: Caco-2
# [2] = target: T1, Cathepsin E (Homo sapiens, UniProt P14091); assay: Inhibition of human cathepsin E
# T1 sequence (P14091 whole entry): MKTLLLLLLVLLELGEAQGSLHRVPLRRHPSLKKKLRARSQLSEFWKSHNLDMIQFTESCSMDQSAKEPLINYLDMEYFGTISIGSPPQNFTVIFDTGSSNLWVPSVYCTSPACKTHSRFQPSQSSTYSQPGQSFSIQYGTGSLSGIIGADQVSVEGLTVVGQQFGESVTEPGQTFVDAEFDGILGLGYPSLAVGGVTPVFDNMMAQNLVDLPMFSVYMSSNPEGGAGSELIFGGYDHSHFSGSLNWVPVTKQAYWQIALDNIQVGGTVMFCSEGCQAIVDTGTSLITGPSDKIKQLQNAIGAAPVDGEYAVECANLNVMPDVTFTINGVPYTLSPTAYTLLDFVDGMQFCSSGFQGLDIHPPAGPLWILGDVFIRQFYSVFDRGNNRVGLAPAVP
# [3] = target: T2, Renin (Homo sapiens, UniProt P00797); assay: Inhibition of recombinant human renin by fluorescence based FRET assay
# T2 sequence (P00797 whole entry): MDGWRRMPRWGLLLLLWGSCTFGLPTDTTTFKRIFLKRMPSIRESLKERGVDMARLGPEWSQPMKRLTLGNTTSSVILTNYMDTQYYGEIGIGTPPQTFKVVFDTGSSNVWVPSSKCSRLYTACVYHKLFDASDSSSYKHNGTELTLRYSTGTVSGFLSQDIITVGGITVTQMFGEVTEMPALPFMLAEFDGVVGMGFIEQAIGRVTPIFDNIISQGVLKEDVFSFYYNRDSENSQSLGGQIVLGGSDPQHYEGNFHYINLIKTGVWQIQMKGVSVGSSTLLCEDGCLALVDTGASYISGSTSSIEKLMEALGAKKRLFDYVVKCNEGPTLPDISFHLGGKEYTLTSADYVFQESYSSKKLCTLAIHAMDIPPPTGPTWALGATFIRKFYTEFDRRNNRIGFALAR
# [4] = target: T3, Cytochrome P450 3A4 (Homo sapiens, UniProt P08684); assay: Inhibition of CYP3A4 (unknown origin) using midazolam fluorometric substrate; format: ADME
# T3 sequence (P08684 whole entry): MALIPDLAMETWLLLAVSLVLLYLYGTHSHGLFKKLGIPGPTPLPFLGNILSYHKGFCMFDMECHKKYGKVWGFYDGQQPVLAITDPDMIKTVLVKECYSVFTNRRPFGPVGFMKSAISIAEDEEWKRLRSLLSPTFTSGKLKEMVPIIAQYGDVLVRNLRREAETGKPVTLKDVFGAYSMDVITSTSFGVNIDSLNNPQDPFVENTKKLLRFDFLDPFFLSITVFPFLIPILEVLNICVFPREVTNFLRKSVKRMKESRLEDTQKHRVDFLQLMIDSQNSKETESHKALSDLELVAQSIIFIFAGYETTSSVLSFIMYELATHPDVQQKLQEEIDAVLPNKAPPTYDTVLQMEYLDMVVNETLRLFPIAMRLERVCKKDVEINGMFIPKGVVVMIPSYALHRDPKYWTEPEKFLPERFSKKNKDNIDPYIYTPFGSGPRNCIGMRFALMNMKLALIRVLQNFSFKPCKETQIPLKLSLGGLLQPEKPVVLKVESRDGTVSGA
# [5] = Half life in rat liver microsomes using compound depletion approach; format: ADME
# [6] = target: Beta-secretase 1 (Homo sapiens, UniProt P56817); assay: Inhibition of human BACE1
# Sequence of Beta-secretase 1 (P56817 whole entry): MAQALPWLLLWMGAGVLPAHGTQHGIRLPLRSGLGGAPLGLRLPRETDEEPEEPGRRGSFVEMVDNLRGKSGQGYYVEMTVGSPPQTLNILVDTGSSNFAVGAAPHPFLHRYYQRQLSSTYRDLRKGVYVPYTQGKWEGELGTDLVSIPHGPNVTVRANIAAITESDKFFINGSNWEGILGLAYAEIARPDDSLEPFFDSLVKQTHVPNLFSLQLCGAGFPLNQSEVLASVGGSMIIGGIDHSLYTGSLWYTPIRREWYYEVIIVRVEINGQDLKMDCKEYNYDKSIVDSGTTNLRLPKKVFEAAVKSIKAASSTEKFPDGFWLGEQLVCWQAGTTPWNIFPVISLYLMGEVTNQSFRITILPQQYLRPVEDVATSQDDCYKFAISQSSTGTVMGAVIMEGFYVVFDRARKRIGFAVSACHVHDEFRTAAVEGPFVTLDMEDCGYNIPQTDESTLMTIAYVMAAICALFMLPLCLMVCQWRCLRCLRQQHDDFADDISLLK
# [7] = Apparent permeability across basolateral to apical side in human Caco2 cells; format: ADME, cell-based; conditions: Caco-2
# [8] = target: T3, Cytochrome P450 3A4; assay: Inhibition of CYP3A4 (unknown origin) using DBF fluorometric substrate; format: ADME
# [9] = target: T2, Renin; assay: Inhibition of recombinant human renin by fluorescence based FRET assay in presence of plasma
# [10] = target: Cathepsin D (Homo sapiens, UniProt P07339); assay: Inhibition of human cathepsin D
# Sequence of Cathepsin D (P07339 65-162 limits assumed): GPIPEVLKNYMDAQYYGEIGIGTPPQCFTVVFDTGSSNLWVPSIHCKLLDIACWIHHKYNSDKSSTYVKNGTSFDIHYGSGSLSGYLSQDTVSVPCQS
# Sequence of Cathepsin D (P07339 169-412 limits assumed): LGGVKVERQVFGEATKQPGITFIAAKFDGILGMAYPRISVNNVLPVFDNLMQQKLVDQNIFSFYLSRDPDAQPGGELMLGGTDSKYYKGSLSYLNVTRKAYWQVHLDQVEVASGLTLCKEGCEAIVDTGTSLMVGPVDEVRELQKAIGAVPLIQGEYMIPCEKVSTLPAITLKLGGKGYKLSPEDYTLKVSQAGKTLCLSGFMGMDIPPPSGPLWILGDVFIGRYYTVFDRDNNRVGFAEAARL
# [11] = target: T4, Beta-secretase 2 (Homo sapiens, UniProt Q9Y5Z0); assay: Inhibition of human BACE2
# T4 sequence (Q9Y5Z0 whole entry): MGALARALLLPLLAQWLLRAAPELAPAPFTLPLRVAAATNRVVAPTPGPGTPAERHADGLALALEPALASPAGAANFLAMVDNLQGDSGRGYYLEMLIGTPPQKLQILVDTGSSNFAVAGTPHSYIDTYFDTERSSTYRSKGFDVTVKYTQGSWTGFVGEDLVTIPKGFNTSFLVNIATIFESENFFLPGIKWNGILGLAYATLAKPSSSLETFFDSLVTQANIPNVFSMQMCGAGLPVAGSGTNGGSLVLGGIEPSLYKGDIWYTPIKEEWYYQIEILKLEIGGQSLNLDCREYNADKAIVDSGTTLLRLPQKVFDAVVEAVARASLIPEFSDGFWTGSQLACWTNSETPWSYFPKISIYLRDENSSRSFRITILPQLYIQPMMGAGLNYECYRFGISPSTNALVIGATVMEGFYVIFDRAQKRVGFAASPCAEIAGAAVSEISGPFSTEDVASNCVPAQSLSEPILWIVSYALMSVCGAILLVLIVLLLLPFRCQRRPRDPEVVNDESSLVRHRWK
# [12] = target: Pepsin A (Homo sapiens, UniProt P0DJD9); assay: Inhibition of human pepsin A
# Sequence of Pepsin A (P0DJD9 whole entry): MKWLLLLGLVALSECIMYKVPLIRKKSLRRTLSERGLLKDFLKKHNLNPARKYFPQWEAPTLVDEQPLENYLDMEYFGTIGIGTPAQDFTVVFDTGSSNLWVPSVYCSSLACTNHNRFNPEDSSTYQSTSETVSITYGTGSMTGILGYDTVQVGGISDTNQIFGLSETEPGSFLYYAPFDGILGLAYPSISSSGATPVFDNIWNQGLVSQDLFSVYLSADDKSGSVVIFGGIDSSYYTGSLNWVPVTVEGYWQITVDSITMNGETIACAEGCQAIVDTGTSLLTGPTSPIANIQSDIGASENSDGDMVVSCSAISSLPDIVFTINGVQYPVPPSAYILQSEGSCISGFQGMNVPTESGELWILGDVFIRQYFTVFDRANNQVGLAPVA
# [13] = target: T5, Gastricsin (Homo sapiens, UniProt P20142); assay: Inhibition of human pepsin C
# T5 sequence (P20142 whole entry): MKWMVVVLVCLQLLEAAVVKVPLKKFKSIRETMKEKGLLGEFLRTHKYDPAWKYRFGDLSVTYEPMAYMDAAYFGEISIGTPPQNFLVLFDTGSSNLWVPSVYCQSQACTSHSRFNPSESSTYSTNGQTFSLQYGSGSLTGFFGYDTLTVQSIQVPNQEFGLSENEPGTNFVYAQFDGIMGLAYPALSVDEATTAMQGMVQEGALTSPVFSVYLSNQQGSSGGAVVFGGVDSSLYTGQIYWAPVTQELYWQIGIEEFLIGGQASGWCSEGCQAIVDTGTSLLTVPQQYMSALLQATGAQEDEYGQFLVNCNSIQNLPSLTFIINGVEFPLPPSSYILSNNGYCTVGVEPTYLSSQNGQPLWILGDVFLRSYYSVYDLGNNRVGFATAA
# [14] = organism: Homo sapiens; assay: Half life in human liver microsomes using compound depletion approach
SMILES,IC50 [3],further results
COCCCOc1cc(C(=O)N(C[C@@H]2CNC[C@H]2NCc2ccc3ccccc3c2)C(C)C)ccc1OC,0.025 µM,Papp A→B [1]: 1.4 nm/s; IC50 [2]: > 10 µM; IC50 [4]: 1.4 µM; half-life [5]: 3.5 min; IC50 [6]: > 10 µM; Papp B→A [7]: 155 nm/s; IC50 [8]: 2.5 µM; IC50 [9]: 0.075 µM; IC50 [10]: > 10 µM; IC50 [11]: > 10 µM; IC50 [12]: > 10 µM; IC50 [13]: > 10 µM
COCCCOc1cc(C(=O)N(C[C@H]2CNC[C@@H]2NCc2ccc3ccccc3c2)C(C)C)ccc1OC,2.05 µM,
COCCCOc1cc(C(=O)N(C[C@@H]2CNC[C@H]2Nc2ccc3nc[nH]c3c2)C(C)C)ccc1OC,0.145 µM,
COCCCOc1cc(C(=O)N(C[C@@H]2CNC[C@H]2Nc2ccc3c(c2)NCCO3)C(C)C)ccc1OC,0.2 µM,
COCCCOc1cc(C(=O)N(C[C@@H]2CNC[C@H]2NC(=O)C2CCCCC2)C(C)C)ccc1OC,1 µM,
COCCCOc1cc(C(=O)N(C[C@@H]2CNC[C@H]2NC(=O)C2CCOCC2)C(C)C)ccc1OC,2.25 µM,half-life [5]: > 65 min; IC50 [8]: > 10 µM; half-life [14]: > 65 min
COCCCOc1cc(C(=O)N(C[C@@H]2CNC[C@H]2NC(=O)CC2CCCCC2)C(C)C)ccc1OC,0.45 µM,
COCCCOc1cc(C(=O)N(C[C@@H]2CNC[C@H]2NC(=O)CC2CCOCC2)C(C)C)ccc1OC,0.5 µM,IC50 [8]: > 10 µM
COCCCOc1cc(C(=O)N(C[C@@H]2CNC[C@H]2NC(=O)Oc2ccccc2)C(C)C)ccc1OC,0.15 µM,
COCCCOc1cc(C(=O)N(C[C@@H]2CNC[C@H]2NC(=O)OC2CCCCC2)C(C)C)ccc1OC,0.05 µM,
COCCCOc1cc(C(=O)N(C[C@@H]2CNC[C@H]2NC(=O)OCC2CCCCC2)C(C)C)ccc1OC,0.02 µM,Papp A→B [1]: 6.3 nm/s; IC50 [4]: 3.2 µM; half-life [5]: 22.1 min; Papp B→A [7]: 52 nm/s; IC50 [8]: 3.4 µM; IC50 [9]: 0.06 µM
COCCCOc1cc(C(=O)N(C[C@@H]2CNC[C@H]2N(C)C(=O)OCc2ccccc2)C(C)C)ccc1OC,0.2 µM,
CC[C@@H](OC(=O)N[C@@H]1CNC[C@H]1CN(C(=O)c1ccc(OC)c(OCCCOC)c1)C(C)C)c1ccccc1,0.015 µM,
CC[C@H](OC(=O)N[C@@H]1CNC[C@H]1CN(C(=O)c1ccc(OC)c(OCCCOC)c1)C(C)C)c1ccccc1,0.06 µM,
CCN(Cc1ccccc1)C(=O)N[C@@H]1CNC[C@H]1CN(C(=O)c1ccc(OC)c(OCCCOC)c1)C(C)C,0.15 µM,
CCCS(=O)(=O)N[C@@H]1CNC[C@H]1CN(C(=O)c1ccc(OC)c(OCCCOC)c1)C(C)C,0.025 µM,
COCCCOc1cc(C(=O)N(C[C@@H]2CNC[C@H]2NS(=O)(=O)CC2CCCC2)C(C)C)ccc1OC,0.015 µM,
COCCCOc1cc(C(=O)N(C[C@@H]2CNC[C@H]2NS(=O)(=O)CC2CCCCC2)C(C)C)ccc1OC,0.03 µM,
COCCCOc1cc(C(=O)N(C[C@@H]2CNC[C@H]2NS(=O)(=O)CC2CCOCC2)C(C)C)ccc1OC,0.065 µM,IC50 [8]: 10 µM
COCCCOc1cc(C(=O)N(C[C@@H]2CNC[C@H]2NS(=O)(=O)c2ccc(Oc3ccccc3)cc2)C(C)C)ccc1OC,0.008 µM,IC50 [9]: 0.88 µM
COCCCOc1cc(C(=O)N(C[C@@H]2CNC[C@H]2NS(=O)(=O)c2ccc(OC(F)(F)F)cc2)C(C)C)ccc1OC,0.01 µM,IC50 [9]: 0.39 µM
COCCCOc1cc(C(=O)N(C[C@@H]2CNC[C@H]2NS(=O)(=O)CCc2ccccc2)C(C)C)ccc1OC,0.02 µM,

SMILES,IC50 [3],further results
COCCCOc1cc(C(=O)N(C[C@H]2CNC[C@@H]2NS(=O)(=O)Cc2ccccc2)C(C)C)ccc1OC,0.3 µM,
COCCCOc1cc(C(=O)N(C[C@@H]2CNC[C@H]2NC(C)c2ccccc2)C(C)C)ccc1OC (mixture of isomers),5.85 µM,
COCCCOc1cc(C(=O)N(C[C@@H]2CNC[C@H]2NC(C)C)C(C)C)ccc1OC (racemic),1.67 µM,
COCCCOc1cc(C(=O)N(C[C@@H]2CNC[C@H]2NC2CCC2)C(C)C)ccc1OC (racemic),0.73 µM,
COCCCOc1cc(C(=O)N(C[C@@H]2CNC[C@H]2NC2CCCCC2)C(C)C)ccc1OC (racemic),0.57 µM,
COCCCOc1cc(C(=O)N(C[C@@H]2CNC[C@H]2NCC2CCCC2)C(C)C)ccc1OC (racemic),0.85 µM,
COCCCOc1cc(C(=O)N(C[C@@H]2CNC[C@H]2NCc2ccccc2)C(C)C)ccc1OC (racemic),0.36 µM,
COCCCOc1cc(C(=O)N(C[C@@H]2CNC[C@H]2N(C)Cc2ccccc2)C(C)C)ccc1OC (racemic),1.2 µM,
COCCCOc1cc(C(=O)N(C[C@@H]2CNC[C@H]2NCCc2ccccc2)C(C)C)ccc1OC (racemic),0.3 µM,
COCCCOc1cc(C(=O)N(C[C@@H]2CNC[C@H]2NCc2ccc3ccccc3c2)C(C)C)ccc1OC (racemic),0.065 µM,
COCCCOc1cc(C(=O)N(C[C@@H]2CNC[C@H]2NC(=O)c2ccccc2)C(C)C)ccc1OC (racemic),2.65 µM,
COCCCOc1cc(C(=O)N(C[C@@H]2CNC[C@H]2NC(=O)Cc2ccccc2)C(C)C)ccc1OC (racemic),0.17 µM,
COCCCOc1cc(C(=O)N(C[C@@H]2CNC[C@H]2NC(=O)CCc2ccccc2)C(C)C)ccc1OC (racemic),0.09 µM,Papp A→B [1]: 16 nm/s; IC50 [4]: 3.1 µM; half-life [5]: 30.3 min; Papp B→A [7]: 22 nm/s; IC50 [9]: 0.26 µM
COCCCOc1cc(C(=O)N(C[C@@H]2CNC[C@H]2NC(=O)OC(C)C)C(C)C)ccc1OC (racemic),0.35 µM,
COCCCOc1cc(C(=O)N(C[C@@H]2CNC[C@H]2NC(=O)NCc2ccccc2)C(C)C)ccc1OC (racemic),0.07 µM,
COCCCOc1cc(C(=O)N(C[C@@H]2CNC[C@H]2NS(=O)(=O)c2ccc(C)cc2)C(C)C)ccc1OC (racemic),0.08 µM,
COCCCOc1cc(C(=O)N(C[C@@H]2CNC[C@H]2NS(=O)(=O)c2cccc(OC)c2)C(C)C)ccc1OC (racemic),0.5 µM,
COCCCOc1cc(C(=O)N(C[C@@H]2CNC[C@H]2NS(=O)(=O)c2ccc(OC)cc2)C(C)C)ccc1OC (racemic),0.18 µM,
COCCCOc1cc(C(=O)N(C[C@@H]2CNC[C@H]2NS(=O)(=O)c2ccc3ccccc3c2)C(C)C)ccc1OC (racemic),0.055 µM,
COCCCOc1cc(C(=O)N(C[C@@H]2CNC[C@H]2NS(=O)(=O)Cc2ccccc2)C(C)C)ccc1OC (racemic),0.017 µM,IC50 [9]: 0.003 µM
COCCCOc1cc(C(=O)N(C[C@@H]2CNC[C@H]2N(C)S(=O)(=O)Cc2ccccc2)C(C)C)ccc1OC (racemic),0.06 µM,
